Where “and” joins values, the source holds several entries; their conditions need not be identical. Equal entries are not always repeated. Non-standard residues stand in square brackets, D forms with d. Residues, ends and D or L forms follow the SMILES beside them. *: point of attachment. Sta = CC(C)C[C@H](N)[C@@H](O)CC(=O)O; Isovaleryl = CC(C)CC(=O)*
Key:
[1] = test system: peptidase activity in DMEM conditioned media; assay: Class-specific peptidase inhibitors on IQ substrate cleavage by DMEM conditioned media; type: biochemical, Cryptococcus neoformans; settings: 1 mM 1-10-phenanthroline
Method: (§1) Although peptidase activity was evident under both culture conditions, differential substrate cleavage reflected differences in specificity. […] Adjustment of YNB supernatants from pH 5.0 to 7.4 (the pH of DMEM media) yielded only very low levels of any peptidase activity, while lowering the pH of DMEM supernatants from 7.4 to pH 5.0 produced a peptidase activity pattern similar to YNB media (S1 Fig).
(§2) Assays were conducted at room temperature on a Biotek Synergy H4 plate reader in a 50 μl volume using 96-well round bottom, polystyrene plates (Corning) with λex 328 nm λem 393 nm unless otherwise stated. Substrates were each 7 or 8 amino acids with 7-methoxycoumarin-4-acetic acid or 7-methoxycoumarin-4-yl-acetyl-L-lysine on the amino terminus, and at the carboxyl terminus 4-dinitrophenyl-L-lysine or 4-dinitrophenyl bound directly to the carboxyl terminus as indicated (For sequences see S1 Table). Substrates were assayed at a 10 μM final concentration from DMSO stocks. […]
(§3) Supplementary file ppat.1006051.s001.pdf: S1 Fig Fluorogenic assays indicate the endopeptidase class present in conditioned media and the optimal pH for detection of activity. […] The activity scale is differs for this experiment because this assay was conducted on a SpectraMax Gemini plate reader (Molecular Devices) although conditions were otherwise equivalent. […]

May1 = molecular target: T1, May1 (Cryptococcus neoformans, UniProt J9VS02); assay: May1 inhibition, fluorogenic IQ-2 assay (screen and IC50); type: biochemical; settings: for IC50: 14.6 nM May1, 10 μM IQ-2, 100 mM MES 100 mM NaCl pH 4.5, 10 min preincubation, read-out: IC50 against May1
T1 construct: endogenous in cells; host or cells: wild-type C. neoformans H99, 32-hour YNB culture supernatant, enriched on HiTrap DEAE
T1 sequence (J9VS02 99-455 limits assumed): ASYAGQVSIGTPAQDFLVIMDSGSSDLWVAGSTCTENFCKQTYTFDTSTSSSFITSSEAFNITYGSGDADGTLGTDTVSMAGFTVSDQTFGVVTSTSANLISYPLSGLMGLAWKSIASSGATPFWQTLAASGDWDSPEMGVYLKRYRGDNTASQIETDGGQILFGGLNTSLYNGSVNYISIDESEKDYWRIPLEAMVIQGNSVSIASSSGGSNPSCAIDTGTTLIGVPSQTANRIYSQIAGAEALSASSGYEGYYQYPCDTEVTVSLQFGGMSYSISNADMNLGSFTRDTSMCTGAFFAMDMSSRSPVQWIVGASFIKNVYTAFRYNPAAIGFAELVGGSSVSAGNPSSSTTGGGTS
Method: Assays were conducted at room temperature on a Biotek Synergy H4 plate reader in a 50 μl volume using 96-well round bottom, polystyrene plates (Corning) with λex 328 nm λem 393 nm unless otherwise stated. Substrates were each 7 or 8 amino acids with 7-methoxycoumarin-4-acetic acid or 7-methoxycoumarin-4-yl-acetyl-L-lysine on the amino terminus, and at the carboxyl terminus 4-dinitrophenyl-L-lysine or 4-dinitrophenyl bound directly to the carboxyl terminus as indicated (For sequences see S1 Table). Substrates were assayed at a 10 μM final concentration from DMSO stocks. Biotek Gen5 software was used to calculate initial velocities in relative fluorescent units per second (RFU/sec) from 20 points over the linear portion of each assay. To assay activity, YNB conditioned media was adjusted to pH 4.5 using 100 mM MES, 100 mM NaCl buffer, […] at a final concentration of 26 mM MES, 26 mM NaCl, unless otherwise stated. Conditioned DMEM media was first buffer exchanged into PBS using a centrifugal filter unit with a 3 kDa cutoff (Millipore) before use. The peptidase inhibitors pepstatin A, 1-10-phenanthroline, AEBSF and E64 were dissolved in DMSO and were obtained from Sigma-Aldrich.
To concentrate secreted May1, YNB conditioned media was prepared as described above from 32-hour cultures of wild-type C. neoformans. The media was then diluted 2.7-fold into buffer A (50 mM Tris base pH 8), chosen to increase the pH in order to limit May1 autoproteolysis, dilute salts in the media (final conductivity ~6%), and confer a negative charge to the peptidase domain. The media was then loaded onto a 1 ml HiTrap DEAE fast flow column (GE Healthcare) using a fast protein liquid chromatography system with a flow rate of 1.5 ml/min. May1 was eluted using a 30 minute linear gradient of 0–100% buffer B (50 mM Tris base, 1 M NaCl, pH 8). Active fractions were determined by measuring activity using the substrate IQ-2. They were then combined and approximate May1 concentration determined by active-site titration.
Published methods were followed with minor modifications.
IC50 calculations were conducted using 14.6 nM May1 (100 mM MES 100 mM NaCl pH 4.5). Inhibitor stocks were dissolved in DMSO and incubated with May1 for 10 minutes before addition of substrate. GraphPad Prism 6 was used to calculate IC50 values from a plot of the log of inhibitor concentration versus normalized response.

wild type C. neoformans = assay: Culture density at saturation (OD600) of wild type C. neoformans in YNB treated with May1 inhibitors; type: cell-based, Cryptococcus neoformans; settings: 2 μM pepstatin A
Method: Fig 5 May1 activity is required for wild-type growth at acidic pH. (A) Culture density was recorded over time by measuring OD600 of cultures grown in YNB. The average density and S.D. of triplicates are shown. (B) Culture density of wild-type C. neoformans grown in YNB containing 2 μM pepstatin A was recorded. Mock indicates DMSO treatment. The average and S.D. of cultures grown in triplicate are shown. (C) Mutant characterization assays were conducted using YNB agar plates. Cultures were adjusted to an OD600 of 5 and then spotted in 10-fold serial dilutions on plates. (D) Full rescue of may1Δ saturation density in YNB was observed after buffering to pH 6.5. Average density and S.D. of triplicates are shown.
Next, we selected the two best in vitro hits to test their potency in culture relative to pepstatin A by measuring inhibition of May1 and restriction of culture growth using fluorogenic assays and OD600 respectively. […] None of the three compounds affected the culture density of a may1Δ strain, consistent with the idea that May1 is the compounds’ relevant target in this context (S11 Fig). […] However, additional medicinal chemistry efforts are necessary for in vivo applications. Therefore, subsequent studies investigating the role of May1 in virulence were carried out using deletion strains of this enzyme. […]

may1Δ C. neoformans = assay: Culture density of may1Δ strain in YNB treated with May1 inhibitors; type: cell-based, Cryptococcus neoformans; settings: YNB cultures
Method: Average values and S.D. of triplicate measurements are shown. (B) Density at saturation (after 48 hours of growth) is shown for YNB cultures of wild type or may1Δ C. neoformans treated with May1 inhibitors. Average values and S.D. of triplicates are shown.

[2] = test system: peptidase activity in YNB conditioned media; assay: Class-specific peptidase inhibitors on IQ substrate cleavage by YNB conditioned media; type: biochemical, Cryptococcus neoformans; settings: 1 µM pepstatin
Method: as §1, §2, §3

| Compound | sensitivity of IQ substrate cleavage by DMEM conditioned media to inhibitor [1] | IC50 (May1) | reduction of May1 activity (May1; 1 μM inhibitor, substrate IQ-2) [%] | inhibition of proteolysis of IQ-2 by enriched May1 (May1; May1 enriched from YNB conditioned media) | saturation density of wild type cultures in YNB (wild type C. neoformans) | effect on culture density of may1Δ cells (may1Δ C. neoformans) | sensitivity of IQ substrate cleavage by conditioned YNB media to inhibitor [2] |
| --- | --- | --- | --- | --- | --- | --- | --- |
| c1cnc2c(c1)ccc1cccnc12 [1-10-phenanthroline] | sensitive | – | – | – | – | – | – |
| Cc1nc(COc2ccc(C[C@H](NC(=O)O[C@H]3CO[C@H]4OCC[C@H]43)[C@H](O)CN(CC(C)C)S(=O)(=O)c3ccc4c(c3)OCO4)cc2)cs1 [Brecanavir] | – | 352 nM and ~352 nM | 80 | – | – | – | – |
| CC(C)CC(=O)N[C@H](C(=O)N[C@H](C(=O)N[C@@H](CC(C)C)[C@@H](O)CC(=O)N[C@@H](C)C(=O)N[C@@H](CC(C)C)[C@@H](O)CC(=O)O)C(C)C)C(C)C [Pepstatin A, pepstatin A] (Isovaleryl-VV[Sta]A[Sta]-OH) | – | 1.4 nM | – | fully inhibited | saturation density defect equivalent to that observed for the MAY1 deletion strains | no effect | sensitive |

— PMC5158083 (PLoS Pathogens, 2016)
